Twelve molecules from patent publication US20060234323A1, “Luminescent ATP detection with extended linearity” (priority 2005, published 2006) can be followed below.

Read-outs that look alike come from different tables or passages of the source. A value given as a limit tells only on which side of the number the result lay.

Test [1] deals with thermostable luciferase (Luc146-1H2) (Photuris pensylvanica, UniProt Q27757). In kind it is biochemical, Photuris pennsylvanica.
In test [2] the target is wild type luciferase from Photinus pyralis (QuantiLum recombinant luciferase) (Photinus pyralis, UniProt P08659). Type of test: biochemical.
Sequence of wild type luciferase from Photinus pyralis (QuantiLum recombinant luciferase) (P08659 whole entry): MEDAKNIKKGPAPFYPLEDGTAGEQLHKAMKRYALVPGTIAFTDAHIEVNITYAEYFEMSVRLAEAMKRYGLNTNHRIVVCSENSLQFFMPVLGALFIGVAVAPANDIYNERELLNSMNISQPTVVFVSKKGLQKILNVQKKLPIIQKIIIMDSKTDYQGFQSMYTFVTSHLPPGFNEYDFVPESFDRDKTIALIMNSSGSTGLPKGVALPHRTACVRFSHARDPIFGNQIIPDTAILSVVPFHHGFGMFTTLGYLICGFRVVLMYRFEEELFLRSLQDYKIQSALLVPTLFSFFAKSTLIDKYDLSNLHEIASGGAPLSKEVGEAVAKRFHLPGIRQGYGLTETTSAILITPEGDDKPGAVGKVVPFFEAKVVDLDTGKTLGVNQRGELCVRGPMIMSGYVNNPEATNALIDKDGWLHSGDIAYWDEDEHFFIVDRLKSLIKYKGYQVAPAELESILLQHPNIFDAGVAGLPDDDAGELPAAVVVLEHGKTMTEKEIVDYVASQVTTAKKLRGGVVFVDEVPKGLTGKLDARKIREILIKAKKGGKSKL
[3] abbreviates: No PPi, 1 mM AMP, 2 mM 5′AMPS, 2 mM ADP S, 5 mM dATP, ATP 0 to 1.67 mM.
Setting [4] is: with 50 μM PPi, 1 mM AMP, 2 mM 5′AMPS, 2 mM ADP S, 5 mM dATP, ATP 0 to 1.67 mM.
Where [5] appears, read: NT (no inhibitor), metal salt replacing MgSO4, MgSO4 reactions employed NaATP, read-out: ATP Km.
Setting [6] is: with AMP + PPi, metal salt replacing MgSO4, MgSO4 reactions employed NaATP, read-out: ATP Km.
[7] abbreviates: with AMP, metal salt replacing MgSO4, MgSO4 reactions employed NaATP, read-out: ATP Km.
Where [8] appears, read: with PPi, metal salt replacing MgSO4, MgSO4 reactions employed NaATP, read-out: ATP Km.

Sequence of thermostable luciferase (Luc146-1H2) (Q27757 whole entry): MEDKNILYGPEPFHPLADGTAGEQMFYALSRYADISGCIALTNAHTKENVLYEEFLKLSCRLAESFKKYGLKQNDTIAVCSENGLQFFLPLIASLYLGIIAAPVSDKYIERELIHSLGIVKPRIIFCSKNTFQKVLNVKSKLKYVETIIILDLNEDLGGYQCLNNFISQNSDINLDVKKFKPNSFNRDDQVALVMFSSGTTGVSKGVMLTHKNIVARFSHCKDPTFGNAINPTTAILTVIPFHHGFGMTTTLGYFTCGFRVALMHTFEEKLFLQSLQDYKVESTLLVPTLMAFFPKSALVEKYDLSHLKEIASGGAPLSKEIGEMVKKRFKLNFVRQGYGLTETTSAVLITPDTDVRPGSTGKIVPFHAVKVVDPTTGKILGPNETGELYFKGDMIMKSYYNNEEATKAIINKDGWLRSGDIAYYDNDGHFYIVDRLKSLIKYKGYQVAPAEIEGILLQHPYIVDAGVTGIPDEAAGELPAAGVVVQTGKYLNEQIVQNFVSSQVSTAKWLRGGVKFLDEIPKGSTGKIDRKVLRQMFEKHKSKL

In the case of `Nc1ncnc2c1ncn2[C@@H]1O[C@H](COP(=O)(O)OP(O)(O)=S)[C@@H](O)[C@H]1O` [ADP S, adenosine 5′-[β-thio] diphosphate], the “increase of the luciferase Km for ATP” value in test [1] is listed as ~10 fold. In test [1], the “type of inhibition of luciferase with respect to ATP” value (from here on “type of inhibition of luciferase”) is reported as “competitive inhibitors”. The Km – broadly, the substrate concentration at which the rate is half of its maximum – in test [1] (setting [3]) worked out at 93 µM; in test [1] (setting [4]), 581 µM.

`[Cl-].[Cl-].[Zn+2]` [ZnCl2]: the Km is 63 µM in test [2] (setting [5]), 2390 µM in test [2] (setting [6]), 585 µM in test [2] (setting [7]) and 109 µM in test [2] (setting [8]).

Take `O=S(=O)([O-])[O-].[Mg+2]` [MgSO4]: the Michaelis constant (Km) in test [2] (setting [5]) is 39 µM; in test [2] (setting [6]) it was 93 µM; in test [2] (setting [7]), 15 µM; in test [2] (setting [8]), 128 µM.

Turning to `[Cl-].[Cl-].[Mg+2]` [MgCl2], the Km in test [2] (setting [5]) was found to be 115 µM; in test [2] (setting [6]) it was 213 µM; in test [2] (setting [7]), 56 µM; in test [2] (setting [8]) it was 276 µM.

For `[Cl][Mn][Cl]` [MnCl2], the Michaelis-Menten constant (Km) in test [2] (setting [5]) was determined as 120 µM; in test [2] (setting [6]), 111 µM; in test [2] (setting [7]), 44 µM; in test [2] (setting [8]), 170 µM.

Turning to `O=P(O)(O)OP(=O)(O)O` [PPi], the Michaelis constant (Km) in test [2] (0 mM AMP, 50 μM PPi, ATP 0 to 2.5 mM, MgATP, read-out: Km) stood at 121 µM; in test [2] (0 mM AMP, 100 μM PPi, ATP 0 to 2.5 mM, MgATP, read-out: Km) it was 130 µM; in test [2] (0 mM AMP, 200 μM PPi, ATP 0 to 2.5 mM, MgATP, read-out: Km), 146 µM; in test [1] (50 μM PPi alone (NT row, no adenosine derivative), ATP 0 to 1.67 mM, read-out: Km), 4 µM; in test [1] (ATP range 0 to 0.09 mM, AMP = 1 mM, PPi = 50 μM, hyperbolic curve fit, read-out: Km for ATP) it was 6 µM; in test [1] (ATP range 0 to 0.3 mM, AMP = 1 mM, PPi = 50 μM, hyperbolic curve fit, read-out: Km for ATP), 6 µM. For the same molecule, the Michaelis-Menten constant (Km) in test [1] (ATP range 0 to 0.8 mM, AMP = 1 mM, PPi = 50 μM, hyperbolic curve fit, read-out: Km for ATP) is 6 µM; in test [1] (ATP range 0 to 2.5 mM, AMP = 1 mM, PPi = 50 μM, hyperbolic curve fit, read-out: Km for ATP), 5 µM. The “increase in Km” value in test [2] (200 μM PPi alone, compared to reactions with no PPi or AMP) is 28%. The “type of inhibition of luciferase” value in test [2] (native beetle luciferase, in the presence of certain divalent metals) is “competitive”; in test [1], “noncompetitive”. The “increase of the luciferase Km for ATP” value in test [1] is ≤ 2 fold.

As to `[Cl][Ni][Cl]` [NiCl2], the Michaelis-Menten constant (Km) in test [2] (setting [5]) stood at 906 µM; in test [2] (setting [6]), 1540 µM; in test [2] (setting [7]) it was 1100 µM; in test [2] (setting [8]), 2420 µM. Also, the “increase of the Km for ATP” value in test [1] (non-Mg metal employed with PPi) is “about 10 fold”.

Take `Nc1ncnc2c1ncn2[C@@H]1O[C@H](COP(O)(O)=S)[C@@H](O)[C@H]1O` [5′AMPS, adenosine 5′-O-thiomonophosphate]: in test [1], the “increase of the luciferase Km for ATP” value was ~10 fold and the “type of inhibition of luciferase” value is on record as “competitive inhibitors”. Also, the Km in test [1] (setting [3]) came out at 91 µM. Moreover, the Michaelis-Menten constant (Km) in test [1] (setting [4]) is 1070 µM.

For the molecule `Nc1ncnc2c1ncn2[C@@H]1O[C@H](COP(=O)(O)O)[C@@H](O)[C@H]1O` [AMP, adenosine monophosphate], in test [2] (3 mM AMP alone, compared to reactions with no PPi or AMP), the “decrease in Km” value amounted to 65%. Moreover, the “increase of the luciferase Km for ATP” value in test [1] is recorded as ~10 fold. Also, in test [1], the “type of inhibition of luciferase” value was “competitive inhibitors”. Also, the Km is 109 µM in test [1] (setting [3]); 109 µM in test [1] (read-out: ATP Km, 1 mM AMP, ATP range 0-1.67 mM); 232 µM in test [1] (read-out: Km for ATP, ATP range 0 to 0.09 mM, AMP = 1 mM, PPi = 50 μM, hyperbolic curve fit); 243 µM in test [1] (read-out: Km for ATP, ATP range 0 to 0.3 mM, AMP = 1 mM, PPi = 50 μM, hyperbolic curve fit); 203 µM in test [1] (read-out: Km for ATP, ATP range 0 to 0.8 mM, AMP = 1 mM, PPi = 50 μM, hyperbolic curve fit); 115 µM in test [1] (read-out: Km for ATP, ATP range 0 to 2.5 mM, AMP = 1 mM, PPi = 50 μM, hyperbolic curve fit). Also, in test [1] (setting [4]), the Michaelis-Menten constant (Km) was 1700 µM.

In the case of `[Ca+2].[Cl-].[Cl-]` [CaCl2], the Michaelis-Menten constant (Km) in test [2] (setting [5]) came to 1910 µM; in test [2] (setting [6]), 1040 µM; in test [2] (setting [7]), 980 µM; in test [2] (setting [8]), 1450 µM.

As to `[Cl-].[Cl-].[Sr+2]` [SrCl2], the Michaelis-Menten constant (Km) in test [2] (setting [5]) is 373 µM; in test [2] (setting [6]), 2650 µM; in test [2] (setting [7]) it was 110 µM; in test [2] (setting [8]), 3290 µM.

For the molecule `Nc1ncnc2c1ncn2[C@H]1C[C@H](O)[C@@H](COP(=O)(O)OP(=O)(O)OP(=O)(O)O)O1` [dATP, deoxyadenosine triphosphate], in test [1], the “increase of the luciferase Km for ATP” value was ~10 fold and the “type of inhibition of luciferase” value is “competitive inhibitors”. Besides, the Km in test [1] (setting [3]) worked out at 127 µM. The Km in test [1] (setting [4]) came to 232 µM.
